Test results as given in paper PMC9317316, “Synthesis and Evaluation of Some New 4H-Pyran Derivatives as Antioxidant, Antibacterial and Anti-HCT-116 Cells of CRC, with Molecular Docking, Antiproliferative, Apoptotic and ADME Investigations” (Pharmaceuticals, 2022).
Values joined by “and” are separate entries in the source; they are usually repeats but may differ in a detail not shown here. Equal values may be shown once. Read-outs that look alike come from different tables or passages of the source.

Assays:
[1] = tested on: caspase-3 gene in HCT-116 cells; experiment: qRT-PCR expression profile of the caspase-3 gene in HCT-116 cells; format: cell-based, human; set-up: dose or concentration left out as unconfirmed; conditions: 24 h, as compared to the negative control
Description: Normally, apoptosis, or programmed cell death, is considered as a safeguard mechanism for managing stress and maintaining tissue homeostasis. It proceeds through a series of well-ordered biochemical cascades of events, which are regulated by a network of proteins. However, due to genetic and epigenetic mutations, deregulation of these proteins occurs, which results in evasion of apoptosis. This oncogenic transformation is a hallmark of human cancer, and it contributes to other tumorigenic events, including uncontrolled growth, accumulation of further genetic mutations, tumor angiogenesis and metastasis and chemotherapeutic resistance. Therefore, reinitiating selective cancer cell death is a fundamental goal in anticancer drug development. Research in cancer biology has provided fundamental insights into the apoptotic pathways and their deregulation in colon cancer. Moreover, it has identified the molecular targets for reinitiating selective tumor cell death, including antiapoptotic Bcl-2 family proteins, apoptosis inhibitors and activators of the TRAIL death receptor signaling pathway, as well as other apoptotic markers, such as caspases. Among the caspases, which play critical roles in apoptosis, are the initiators, including caspases-8 or 9, and the effectors, including caspase-3 and caspase-7. […] Thus, the real-time quantitative PCR analyses of caspase-3-gene levels following treatment with compounds 4d and 4K at a concentration […] for 24 h, were performed to investigate their potential as proapoptotic agents. […]
(§1) Total RNA was extracted from each cell culture flask using the RNeasy extraction kit (RNeasy micro kit, cat. no. 74004). […] The amount of extracted RNA was quantified by estimating the absorbance at 260 nm. The purity of the RNA was checked by measuring the ratio of the absorbance at 260 and 280 nm, where a ratio ranging from 1.8 to 2.0 was taken to be pure. […]
(§2) Quantitative real-time PCR was carried out with the Thermal Cycler Rotorgene Real-Time System II (Rotorgene, South Korea) with the SYBR kit. […]

[2] = tested on: CDK2 gene in HCT-116 cells; experiment: qRT-PCR expression profile of the CDK2 gene in HCT-116 cells; format: cell-based, human; conditions: 24 h, relative to untreated cells (given as decreased x-fold)
Protocol: Second, the expression profiles of the CDK2 gene in HCT-116 cells treated with compounds 4d and 4k were determined. The results were compared with the positive control (cells treated with the well-known cytotoxic drug 5-fluorouracil) and the negative control (untreated cells).
Primers specific for the cyclin-dependent kinase-2 (CDK2) and caspase-3 genes were designed using primer blast (https://www.ncbi.nlm.nih.gov/tools/primer-blast/, accessed on 31 October 2021) or primer3 (https://primer3.ut.ee/, accessed on 31 October 2021) software. The selected genes covered the two main groups of the cyclin-dependent kinase-2 (CDK2) gene and the caspase-3 gene. Primers were used in RT-qPCR analysis to amplify fragments of 100–200 bp in length (Table 7).
as §1, with “74004). Up to 1 × 10^6 cells, depending on the cell line, were disrupted in buffer RLT and homogenized and disrupted. Ethanol was then added to the lysate, creating conditions that promote the selective binding of RNA to the RNeasy membrane.” for “74004).”
as §2
The relative expression levels through the average cycle threshold (CT) were successfully detected. Average CT values were calculated from the triplicate experiment conducted for each gene; the CT value was detected by subtracting the average CT value of genes from the CT value of actin and GAPDH genes. The relative expression levels of the target genes were calculated using the ΔΔ Ct method and the reference genes GAPDH for the cancer cell line. Finally, a fold change equation […] was used to estimate relative expression levels, while the standard deviation was calculated from the replicated experimental data.

HCT-116 cells = experiment: Cell viability (cytotoxicity, LDH release) assay; format: cell-based; conditions: Homo sapiens, 24 h
Outline: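 Human colorectal HCT-116 cells exposed to compounds at 10, 25, 50 and 100 µg/mL in DMEM with 10% FBS for 24 h at 37 °C. LDH released into the supernatant measured at 600 nm; viability given as % of untreated control OD (mean ± SD, n = 3), 0.1% Triton X-100 as positive control.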

[3] = tested on: P. aeruginosa (ATCC 27853); experiment: Antibacterial viability (CFU) assay, IC50; format: cell-based; conditions: Pseudomonas aeruginosa, ATCC27853
Outline: (§3)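 Agar diffusion: inhibition zone on top agar, ampicillin 10 µg/well reference. CFU assay: compound mixed with 2 ×10^7 CFU/mL in BHI, shaken 60 min at 37 °C, serially diluted, plated and grown 24 h at 37 °C; IC50 from residual CFUs versus initial inoculum, mean of three measurements.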

S. enteric (ATCC 43972) [4] = experiment: Antibacterial viability (CFU) assay, IC50; format: cell-based; conditions: read-out: IC50
Outline: as §3

B. subtilis (ATCC 6633) [5] = experiment: Antibacterial viability (CFU) assay, IC50; format: cell-based; conditions: Bacillus subtilis, ATCC6633, B. subtilis (ATCC 6633)
Outline: as §3

S. aureus (ATCC 25923) [6] = experiment: Antibacterial viability (CFU) assay, IC50; format: cell-based; conditions: Staphylococcus aureus, ATCC25923
Outline: as §3

[7] = tested on: S. epidermidis (ATCC 14990); experiment: Antibacterial viability (CFU) assay, IC50; format: cell-based; conditions: Staphylococcus epidermidis, ATCC14990
Outline: as §3

B. cereus (ATCC 14579) [8] = experiment: Antibacterial viability (CFU) assay, IC50; format: cell-based; conditions: Bacillus cereus, ATCC14579
Outline: as §3

E. coli (ATCC 25966) [9] = experiment: Antibacterial viability (CFU) assay, IC50; format: cell-based; conditions: Escherichia coli, ATCC25966; E. coil (ATCC 25966)
Outline: as §3

E. faecalis (ATCC 29122) [10] = experiment: Antibacterial viability (CFU) assay, IC50; format: cell-based; conditions: Enterococcus faecalis, ATCC29122
Outline: as §3

[11] = tested on: K. pneumonia (ATCC 700603); experiment: Antibacterial viability (CFU) assay, IC50; format: cell-based; conditions: Klebsiella pneumoniae, ATCC700603
Outline: as §3

[12] = DPPH radical scavenging assay
Outline: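 Ethanolic DPPH mixed with samples at 0.03 to 1 mg/mL, kept 1 h at room temperature in darkness, then absorbance read at 519 nm against compound-free control. Scavenging percentage computed as (1 − Acompound/Acontrol) × 100; IC50 interpolated from scavenging-versus-concentration plot.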

[13] = Reducing power assay (FRAC, Fe3+ to Fe2+); conditions: 0-1 mg/mL, absorbance 700 nm
Outline: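 Oyaizu method: compound (0–1 mg/mL) incubated with 0.2 M phosphate buffer pH 6.6 and 1% K3Fe(CN)6 at 50 °C for 20 min, then TCA, centrifugation, and 0.1% FeCl3 added to supernatant. Absorbance read at 700 nm; EC50 expressed in mM, BHT as reference.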

[14] = tested on: P. aeruginosa (ATCC 27853); experiment: Antibacterial agar diffusion method (inhibition zone); format: cell-based
Outline: as §3

S. enteric (ATCC 43972) [15] = experiment: as above; format: cell-based
Outline: as §3

B. subtilis (ATCC 6633) [16] = experiment: as above; format: cell-based
Outline: as §3

S. aureus (ATCC 25923) [17] = experiment: as above; format: cell-based
Outline: as §3

[18] = tested on: S. epidermidis (ATCC 14990); experiment: as above; format: cell-based
Outline: as §3

B. cereus (ATCC 14579) [19] = experiment: as above; format: cell-based
Outline: as §3

E. coli (ATCC 25966) [20] = experiment: as above; format: cell-based; conditions: E. coil (ATCC 25966)
Outline: as §3

E. faecalis (ATCC 29122) [21] = experiment: as above; format: cell-based
Outline: as §3

[22] = tested on: K. pneumonia (ATCC 700603); experiment: as above; format: cell-based
Outline: as §3

[23] = tested on: CDK2 protein in HCT-116 cells; experiment: Quantitative determination of CDK2 concentration in HCT-116 cell lysates (Human CDK2 ELISA Kit); format: cell-based; conditions: negative control 7.466 ng/mL
Protocol: First, the commercial Human CDK2 ELISA Kit was used to estimate concentrations of the protein in the lysate of HCT-116 cells treated with 4d and 4k. The results were compared with the positive (cells treated with the reference CDK inhibitor, BMS-265246) and negative control experiments.
The in vitro quantitative measurement of concentration of CDK2 in lysates of HCT-116 cells was carried out using a commercial Human CDK2 ELISA Kit (cat. no.: LS-F22176; LifeSpan Biosciences Inc., Seattle, WA, USA) in the presence or absence of the studied compounds (4d and 4k), following the manufacturer’s instructions. Briefly, standards, blanks or samples were first incubated in the corresponding wells for 90 min at 37 °C. Then, biotinylated detection antibody was added to each well and the plate was incubated for 1 h at 37 °C followed by the addition of an Avidin–Horseradish Peroxidase (HRP) conjugate which binds to the biotin. After incubation of the mixture for 30 min at 37 °C, unbound Avidin–HRP conjugate was washed away and a TMB substrate was then added which reacts with the HRP enzyme, resulting in color development. After that, the reaction was stopped using a sulfuric acid stop solution to terminate the color-development reaction and the optical density of each well was measured using a microplate reader at 450 nm. BMS-265246 was used as the standard drug for inhibition of CDK2. All measurements were performed in triplicate.

CDK2/CyclinA2 enzyme = biological target: T1, CDK2/CyclinA2 enzyme (Homo sapiens, UniProt P24941); experiment: In vitro CDK2 inhibitory assay (Kinase-Glo); format: biochemical
T1 construct: purchased BPS Biosciences, San Diego, CA, USA 79599
Protocol: To further substantiate the promising results of the docking analyses of pyrans 4d and 4K in the ATP active site of CDK2, their in vitro potencies to inhibit the enzyme activity were evaluated over a concentration range of 0.01−10 µM.
CDK-2 inhibition activity of the studied compounds 4d and 4k was evaluated using a commercial CDK2 […] (cat. no.: 79599; BPS Biosciences, San Diego, CA, USA) following the manufacturer’s instructions. Briefly, different concentrations of each compound or the positive control BMS-265246 (0.01, 0. 1, 1 or 10 µM) were incubated with 20 µL of diluted CDK2/CyclinA2 enzyme at 30 °C for 45 min. Following the addition of 50 µL Kinase-Glo® Reagent to each well, the plate was incubated at room temperature for 15 min. Then, the luminescence signal was measured using the microplate reader. The CDK2 inhibitory activity was expressed as inhibition percentage, which was determined by comparison with a control experiment for comparative purposes. IC50 values were deduced from the curves. All measurements were performed in triplicate.

In the case of `O=c1[nH]cc(F)c(=O)[nH]1` [5-FU, 5-fluorouracil, reference compound], the “caspase-3 gene transcription level, fold increase” value [1] is reported as 7.31 fold and the “CDK2 transcript level, fold” value [2] is reported as 0.29 fold.

Work on `COc1cc(OC)c(C2C(C#N)=C(N)Oc3n[nH]c(C)c32)c(OC)c1` (stereo not drawn) [5b, 6-Amino-3-methyl-4-(2,4,6-trimethoxy-phenyl)-2,4-dihydro-pyrano[2,3-c]pyrazole-5-carbonitrile] yielded a viability at 100 µg/mL (HCT-116 cells; 100 µg/mL, read-out: percent of viable cells) of 11 to 32.5%, an IC50 (HCT-116 cells; read-out: Mean IC50 (µM) of cytotoxicity) of 97.9 ± 7.06 µM and an IC50 (HCT-116 cells; read-out: Mean IC50 (µg/mL) of cytotoxicity) of 33.5 ± 2.42 µg/mL. It also gave an IC50 [3] of 92.3 ± 1.46 µM, an IC50 (S. enteric (ATCC 43972) [4]) of 106 ± 2.92 µM and an IC50 (B. subtilis (ATCC 6633) [5]) of 41.8 ± 1.23 µM. The IC50 (S. aureus (ATCC 25923) [6]) was 39.1 ± 1.66 µM, the IC50 [7] was 50.1 ± 0.61 µM and the IC50 (B. cereus (ATCC 14579) [8]) was 42.6 ± 1.66 µM. It also gave an IC50 (E. coli (ATCC 25966) [9]) of 117 ± 4.09 µM, an IC50 (E. faecalis (ATCC 29122) [10]) of 45.1 ± 1.87 µM and an IC50 [11] of 110 ± 1.75 µM. The IC50 ([12]; 0.03 to 1 mg/mL, 1 h, mean ± SD, triplicate, read-out: IC50 (mM) for DPPH Scavenging Potency) was 1.78 ± 0.082 mM, the “DPPH Radical Scavenging Effenciency (%) at 1 mg/mL” value ([12]; at 1 mg/mL) was 37.50 ± 2.12% and the EC50 [13] was 467 ± 41 µM. The melting point was 182 to 184 °C, the “IZ (mm)” value [14] was 6.5 ± 0.7 mm and the “IZ (mm)” value (S. enteric (ATCC 43972) [15]) was 7.5 ± 0.7 mm. The “IZ (mm)” value (B. subtilis (ATCC 6633) [16]) was 8.50 ± 0.71 mm, the “IZ (mm)” value (S. aureus (ATCC 25923) [17]) was 5.50 ± 0.71 mm and the “IZ (mm)” value [18] was 6.60 mm and 6.60 ± 0.57 mm. The “IZ (mm)” value (B. cereus (ATCC 14579) [19]) was 8.00 ± 1.41 mm, the “IZ (mm)” value (E. coli (ATCC 25966) [20]) was 3.5 ± 0.71 mm and the “IZ (mm)” value (E. faecalis (ATCC 29122) [21]) was 9.75 ± 1.06 mm. The “IZ (mm)” value [22] was 4.5 ± 0.7 mm.

In the case of `CCCCOc1c(C(=O)c2c(F)cc(C)cc2F)c[nH]c2nncc1-2` [BMS-265246, reference compound], the “concentration of CDK2 in lysate of treated HCT-116 cells” value [23] is reported as 2.229 ng/mL, the “decrease of CDK2 activity” value (CDK2/CyclinA2 enzyme; at 10 µM) is reported as 92.3% and the IC50 (CDK2/CyclinA2 enzyme; deduced from curves over 0.01-10 µM, read-out: IC50 against CDK2) is reported as 0.036 µM.
